Where two headings read alike, the source gives them in different places.
How the values were obtained:
acetylcholinesterase = acetylcholinesterase (Homo sapiens (Human), UniProt P22303); assay: biochemical; format: biochemical; conditions: for potency on acetylcholinesterase compared with positive control drug donepezil hydrochloride: enzymology level; for IC50: read-out: IC50 (nM), inhibition activity on acetylcholinesterase
[1] = test system: learning and memory disorder of mice induced by scopolamine; assay: Morris water maze test, senile dementia mice model induced by scopolamine; format: in vivo; conditions: for effect on learning and memory disorder of mice induced by scopolamine: Morris water maze, in comparison with model group / donepezil hydrochloride group; for latent period day 1 / latent period day 2 / latent period day 3 / latent period day 4 / latent period day 5 / times of crossing platform: scopolamine 1 mg/kg
malonaldehyde (MDA) = assay: Biochemical indicators of brain tissues (MDA assay) in scopolamine mice; format: in vivo; conditions: 5 mg/kg; for MDA(nmol/mgprot): brain tissue homogenate
Procedure: After the behavior test was complete, the mice were sacrificed, brain tissues were collected (operated on an ice plate) and prepared into 10% of tissue homogenate with pre-cooled physiological saline, centrifuged (3000 rpm, 10 min), and the supernatant was subjected to malonaldehyde (MDA) assay following the kits.

Sequence of acetylcholinesterase (P22303 32-614, species assumed): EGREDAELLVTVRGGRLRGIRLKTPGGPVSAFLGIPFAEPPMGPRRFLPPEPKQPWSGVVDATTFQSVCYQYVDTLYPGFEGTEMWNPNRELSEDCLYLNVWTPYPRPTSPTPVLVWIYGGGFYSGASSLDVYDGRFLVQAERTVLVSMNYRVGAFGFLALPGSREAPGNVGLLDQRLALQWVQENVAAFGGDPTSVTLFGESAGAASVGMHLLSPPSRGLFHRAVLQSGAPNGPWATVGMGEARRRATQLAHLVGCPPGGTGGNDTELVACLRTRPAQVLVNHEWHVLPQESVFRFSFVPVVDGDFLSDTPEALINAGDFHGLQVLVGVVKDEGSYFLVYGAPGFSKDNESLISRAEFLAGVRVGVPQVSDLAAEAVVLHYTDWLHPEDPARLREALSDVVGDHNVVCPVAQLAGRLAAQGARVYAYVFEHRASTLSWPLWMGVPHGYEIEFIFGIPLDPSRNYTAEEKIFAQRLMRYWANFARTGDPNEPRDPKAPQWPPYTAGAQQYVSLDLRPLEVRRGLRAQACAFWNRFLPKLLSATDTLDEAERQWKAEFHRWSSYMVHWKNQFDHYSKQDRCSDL

Compound | potency on acetylcholinesterase compared with positive control drug donepezil hydrochloride (acetylcholinesterase; in vitro) | IC50 (acetylcholinesterase; modified Ellman method) [nM] | effect on learning and memory disorder of mice induced by scopolamine [1] | IC50 (acetylcholinesterase) [nM] | latent period day 1 ([1]; Table 4, 5 mg/kg intragastric) [s] | latent period day 2 ([1]; Table 4, 5 mg/kg intragastric) [s] | latent period day 3 ([1]; Table 4, 5 mg/kg intragastric) [s] | latent period day 4 ([1]; Table 4, 5 mg/kg intragastric) [s] | latent period day 5 ([1]; Table 4, 5 mg/kg intragastric) [s] | times of crossing platform ([1]; Table 4, 5 mg/kg intragastric) | MDA(nmol/mgprot) (malonaldehyde (MDA)) | other results
O=C1c2cc3c(cc2C(=O)N1CCC1CCN(Cc2cccc(F)c2)CC1)OCO3 [Compound I-3, 6-[2-[1-[(3-fluorophenyl)methyl]-4-piperidyl]ethyl]-[1,3]dioxolo[4,5-f]isoindole-5,7-dione] | slightly lower potency than the positive control drug | 269 | decreases significantly |  |  |  |  |  |  |  |  | latent period day 1 ([1]; Table 3, 5 mg/kg intragastric): 56.5 ± 8.5 s; latent period day 2 ([1]; Table 3, 5 mg/kg intragastric): 56.5 ± 8.6 s; latent period day 3 ([1]; Table 3, 5 mg/kg intragastric): 60 ± 0 s; latent period day 4 ([1]; Table 3, 5 mg/kg intragastric): 43.9 ± 15.4 s; latent period day 5 ([1]; Table 3, 5 mg/kg intragastric): 34.0 ± 19.5 s; times of crossing platform ([1]; Table 3, 5 mg/kg intragastric): 1.9 ± 1.5; latent period day 1 ([1]; Table 3, 10 mg/kg intragastric): 59.3 ± 2.6 s; latent period day 2 ([1]; Table 3, 10 mg/kg intragastric): 56.3 ± 9.7 s; latent period day 3 ([1]; Table 3, 10 mg/kg intragastric): 55.5 ± 9.5 s; latent period day 4 ([1]; Table 3, 10 mg/kg intragastric): 49.4 ± 15.7 s; latent period day 5 ([1]; Table 3, 10 mg/kg intragastric): 45.0 ± 15.0 s; times of crossing platform ([1]; Table 3, 10 mg/kg intragastric): 1.1 ± 1.1
O=C1c2cc3c(cc2C2(CC2)N1CCC1CCN(Cc2ccc(F)cc2)CC1)OCO3 [Compound I-20, 6-[2-[1-[(4-fluorophenyl)methyl]-4-piperidyl]ethyl]spiro[[1,3]dioxolo[4,5-f]isoindole-7,1′-cyclopropane]-5-one] | even lower | 706 |  |  |  |  |  |  |  |  |  | 
O=C1c2cc3c(cc2C(=O)N1CCC1CCN(Cc2ccccn2)CC1)OCO3 [Compound I-36, 6-[2-[1-(2-pyridylmethyl)-4-piperidyl]ethyl]-[1,3]dioxolo[4,5-f]isoindole-5,7-dione] | slightly lower potency than the positive control drug | 161 |  |  |  |  |  |  |  |  |  | 
O=C1c2cc3c(cc2CN1CCC1CCN(Cc2ccc(F)cc2)CC1)OCO3 [Compound I-8, 6-[2-[1-[(4-fluorophenyl)methyl]-4-piperidyl]ethyl]-5H-[1,3]dioxolo[4,5-f]isoindol-7-one] | even lower | 658 |  |  |  |  |  |  |  |  |  | 
CC1(C)c2cc3c(cc2C(=O)N1CCC1CCN(Cc2ccccc2F)CC1)OCO3 [Compound I-14, 6-[2-[1-[(2-fluorophenyl)methyl]-4-piperidyl]ethyl]-7,7-dimethyl-[1,3]dioxolo[4,5-f]isoindol-5-one] | relative low activity |  |  | > 2000 | 57.1 ± 7.6 | 60 ± 0 | 60 ± 0 | 54.2 ± 8.9 | 49.9 ± 14.7 | 1.3 ± 1.8 | 7.36 ± 1.3 | 
O=C1c2cc3c(cc2C2(CC2)N1CCC1CCN(Cc2ccccn2)CC1)OCO3 [Compound I-29, 6-[2-[1-(2-pyridylmethyl)-4-piperidyl]ethyl]spiro[[1,3]dioxolo[4,5-f]isoindole-7,1′-cyclopropane]-5-one] | even lower |  | stronger effects of improving learning and memory | 903 | 59.3 ± 2.7 | 54.6 ± 12.5 | 48.0 ± 15.8 | 46.0 ± 16.3 | 40.4 ± 21.6 | 1.5 ± 1.4 | 6.66 ± 1.75 | inhibition activity on acetylcholinesterase in vitro relative to donepezil hydrochloride (acetylcholinesterase; in vitro): about 10%; content of MDA in brains / antioxidation effect (malonaldehyde (MDA)): significant antioxidation effect

— patent US9346818B2 (priority 2012, dated 2016)
